What was measured:
Assay in all cases: biochemical
Design in all cases: radiometric methyltransferase selectivity assay with tritiated SAM, per cent activity
Details in all cases: read-out: % of control remaining
PRMT9 = biological target: T1, PRMT9 (Homo sapiens, UniProt Q6P2P2)
T1 sequence (Q6P2P2 1-845): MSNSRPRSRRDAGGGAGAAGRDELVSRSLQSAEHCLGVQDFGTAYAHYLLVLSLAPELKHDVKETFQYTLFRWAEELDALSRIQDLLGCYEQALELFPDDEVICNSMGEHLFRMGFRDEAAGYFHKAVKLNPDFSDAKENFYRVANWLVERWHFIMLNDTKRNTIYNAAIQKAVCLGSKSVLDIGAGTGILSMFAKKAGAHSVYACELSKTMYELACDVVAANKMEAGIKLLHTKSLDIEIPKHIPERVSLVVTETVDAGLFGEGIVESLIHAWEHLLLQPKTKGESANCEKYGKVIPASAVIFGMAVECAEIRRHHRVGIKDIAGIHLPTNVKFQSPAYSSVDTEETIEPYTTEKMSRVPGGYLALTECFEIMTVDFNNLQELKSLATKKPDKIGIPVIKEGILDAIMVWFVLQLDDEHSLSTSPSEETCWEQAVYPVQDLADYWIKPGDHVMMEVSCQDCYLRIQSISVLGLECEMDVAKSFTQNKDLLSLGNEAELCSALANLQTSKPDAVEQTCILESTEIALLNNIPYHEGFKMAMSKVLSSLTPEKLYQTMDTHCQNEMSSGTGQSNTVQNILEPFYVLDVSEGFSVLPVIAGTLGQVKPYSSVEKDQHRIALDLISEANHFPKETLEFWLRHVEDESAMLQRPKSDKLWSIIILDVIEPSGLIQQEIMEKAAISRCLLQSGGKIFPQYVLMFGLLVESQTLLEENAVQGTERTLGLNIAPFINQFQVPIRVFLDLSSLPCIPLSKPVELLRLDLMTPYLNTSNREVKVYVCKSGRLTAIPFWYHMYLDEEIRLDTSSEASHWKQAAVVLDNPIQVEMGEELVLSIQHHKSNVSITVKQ
In short: (§1)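 Radiometric methyltransferase assays with ³H-SAM and substrate near apparent Km, compound tested at 1 and 10 μM. Methyl incorporation into biotinylated substrate read by scintillation proximity after guanidine quench; no-compound = 100%, no-enzyme = 0% activity.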

DNMT1 = DNMT1 (Homo sapiens, UniProt P26358)
In short: as §1

SETD7 = biological target: T2, SETD7 (Homo sapiens, UniProt Q8WTS6)
T2 sequence (Q8WTS6 1-366): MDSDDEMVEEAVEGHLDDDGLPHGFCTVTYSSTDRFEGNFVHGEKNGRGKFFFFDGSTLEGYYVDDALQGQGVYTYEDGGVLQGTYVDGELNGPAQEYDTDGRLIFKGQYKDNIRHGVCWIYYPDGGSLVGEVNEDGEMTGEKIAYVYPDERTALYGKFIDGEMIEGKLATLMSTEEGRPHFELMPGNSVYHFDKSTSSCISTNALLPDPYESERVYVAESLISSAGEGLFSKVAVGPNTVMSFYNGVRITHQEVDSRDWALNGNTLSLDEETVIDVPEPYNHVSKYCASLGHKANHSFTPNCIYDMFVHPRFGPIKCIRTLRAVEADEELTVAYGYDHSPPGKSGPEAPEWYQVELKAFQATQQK
In short: as §1

MLL1 = biological target: T3, MLL1 (Homo sapiens, UniProt Q03164)
T3 construct: gene KMT2A
In short: as §1

SETDB1 = SETDB1 (Homo sapiens, UniProt Q15047)
In short: as §1

METTL3-14 = METTL3-14 (Homo sapiens, UniProt Q86U44)
In short: as §1

DOT1L = DOT1L (Homo sapiens, UniProt Q8TEK3)
In short: as §1

SUV39H2 = SUV39H2 (Homo sapiens, UniProt Q9H5I1)
In short: as §1

Chain of SUV39H2 (Q9H5I1 whole entry): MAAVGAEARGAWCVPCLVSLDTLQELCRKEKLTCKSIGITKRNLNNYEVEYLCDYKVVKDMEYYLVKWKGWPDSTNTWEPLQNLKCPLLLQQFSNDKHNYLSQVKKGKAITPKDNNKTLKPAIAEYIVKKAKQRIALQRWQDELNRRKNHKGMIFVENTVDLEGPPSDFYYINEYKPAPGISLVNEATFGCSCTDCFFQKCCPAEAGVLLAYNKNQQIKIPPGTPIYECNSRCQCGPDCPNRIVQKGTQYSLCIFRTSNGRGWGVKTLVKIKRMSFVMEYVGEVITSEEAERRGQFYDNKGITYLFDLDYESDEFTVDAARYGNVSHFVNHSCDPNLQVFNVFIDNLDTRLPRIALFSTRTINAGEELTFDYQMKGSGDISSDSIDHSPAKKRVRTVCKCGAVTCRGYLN
T3 sequence (Q03164 whole entry): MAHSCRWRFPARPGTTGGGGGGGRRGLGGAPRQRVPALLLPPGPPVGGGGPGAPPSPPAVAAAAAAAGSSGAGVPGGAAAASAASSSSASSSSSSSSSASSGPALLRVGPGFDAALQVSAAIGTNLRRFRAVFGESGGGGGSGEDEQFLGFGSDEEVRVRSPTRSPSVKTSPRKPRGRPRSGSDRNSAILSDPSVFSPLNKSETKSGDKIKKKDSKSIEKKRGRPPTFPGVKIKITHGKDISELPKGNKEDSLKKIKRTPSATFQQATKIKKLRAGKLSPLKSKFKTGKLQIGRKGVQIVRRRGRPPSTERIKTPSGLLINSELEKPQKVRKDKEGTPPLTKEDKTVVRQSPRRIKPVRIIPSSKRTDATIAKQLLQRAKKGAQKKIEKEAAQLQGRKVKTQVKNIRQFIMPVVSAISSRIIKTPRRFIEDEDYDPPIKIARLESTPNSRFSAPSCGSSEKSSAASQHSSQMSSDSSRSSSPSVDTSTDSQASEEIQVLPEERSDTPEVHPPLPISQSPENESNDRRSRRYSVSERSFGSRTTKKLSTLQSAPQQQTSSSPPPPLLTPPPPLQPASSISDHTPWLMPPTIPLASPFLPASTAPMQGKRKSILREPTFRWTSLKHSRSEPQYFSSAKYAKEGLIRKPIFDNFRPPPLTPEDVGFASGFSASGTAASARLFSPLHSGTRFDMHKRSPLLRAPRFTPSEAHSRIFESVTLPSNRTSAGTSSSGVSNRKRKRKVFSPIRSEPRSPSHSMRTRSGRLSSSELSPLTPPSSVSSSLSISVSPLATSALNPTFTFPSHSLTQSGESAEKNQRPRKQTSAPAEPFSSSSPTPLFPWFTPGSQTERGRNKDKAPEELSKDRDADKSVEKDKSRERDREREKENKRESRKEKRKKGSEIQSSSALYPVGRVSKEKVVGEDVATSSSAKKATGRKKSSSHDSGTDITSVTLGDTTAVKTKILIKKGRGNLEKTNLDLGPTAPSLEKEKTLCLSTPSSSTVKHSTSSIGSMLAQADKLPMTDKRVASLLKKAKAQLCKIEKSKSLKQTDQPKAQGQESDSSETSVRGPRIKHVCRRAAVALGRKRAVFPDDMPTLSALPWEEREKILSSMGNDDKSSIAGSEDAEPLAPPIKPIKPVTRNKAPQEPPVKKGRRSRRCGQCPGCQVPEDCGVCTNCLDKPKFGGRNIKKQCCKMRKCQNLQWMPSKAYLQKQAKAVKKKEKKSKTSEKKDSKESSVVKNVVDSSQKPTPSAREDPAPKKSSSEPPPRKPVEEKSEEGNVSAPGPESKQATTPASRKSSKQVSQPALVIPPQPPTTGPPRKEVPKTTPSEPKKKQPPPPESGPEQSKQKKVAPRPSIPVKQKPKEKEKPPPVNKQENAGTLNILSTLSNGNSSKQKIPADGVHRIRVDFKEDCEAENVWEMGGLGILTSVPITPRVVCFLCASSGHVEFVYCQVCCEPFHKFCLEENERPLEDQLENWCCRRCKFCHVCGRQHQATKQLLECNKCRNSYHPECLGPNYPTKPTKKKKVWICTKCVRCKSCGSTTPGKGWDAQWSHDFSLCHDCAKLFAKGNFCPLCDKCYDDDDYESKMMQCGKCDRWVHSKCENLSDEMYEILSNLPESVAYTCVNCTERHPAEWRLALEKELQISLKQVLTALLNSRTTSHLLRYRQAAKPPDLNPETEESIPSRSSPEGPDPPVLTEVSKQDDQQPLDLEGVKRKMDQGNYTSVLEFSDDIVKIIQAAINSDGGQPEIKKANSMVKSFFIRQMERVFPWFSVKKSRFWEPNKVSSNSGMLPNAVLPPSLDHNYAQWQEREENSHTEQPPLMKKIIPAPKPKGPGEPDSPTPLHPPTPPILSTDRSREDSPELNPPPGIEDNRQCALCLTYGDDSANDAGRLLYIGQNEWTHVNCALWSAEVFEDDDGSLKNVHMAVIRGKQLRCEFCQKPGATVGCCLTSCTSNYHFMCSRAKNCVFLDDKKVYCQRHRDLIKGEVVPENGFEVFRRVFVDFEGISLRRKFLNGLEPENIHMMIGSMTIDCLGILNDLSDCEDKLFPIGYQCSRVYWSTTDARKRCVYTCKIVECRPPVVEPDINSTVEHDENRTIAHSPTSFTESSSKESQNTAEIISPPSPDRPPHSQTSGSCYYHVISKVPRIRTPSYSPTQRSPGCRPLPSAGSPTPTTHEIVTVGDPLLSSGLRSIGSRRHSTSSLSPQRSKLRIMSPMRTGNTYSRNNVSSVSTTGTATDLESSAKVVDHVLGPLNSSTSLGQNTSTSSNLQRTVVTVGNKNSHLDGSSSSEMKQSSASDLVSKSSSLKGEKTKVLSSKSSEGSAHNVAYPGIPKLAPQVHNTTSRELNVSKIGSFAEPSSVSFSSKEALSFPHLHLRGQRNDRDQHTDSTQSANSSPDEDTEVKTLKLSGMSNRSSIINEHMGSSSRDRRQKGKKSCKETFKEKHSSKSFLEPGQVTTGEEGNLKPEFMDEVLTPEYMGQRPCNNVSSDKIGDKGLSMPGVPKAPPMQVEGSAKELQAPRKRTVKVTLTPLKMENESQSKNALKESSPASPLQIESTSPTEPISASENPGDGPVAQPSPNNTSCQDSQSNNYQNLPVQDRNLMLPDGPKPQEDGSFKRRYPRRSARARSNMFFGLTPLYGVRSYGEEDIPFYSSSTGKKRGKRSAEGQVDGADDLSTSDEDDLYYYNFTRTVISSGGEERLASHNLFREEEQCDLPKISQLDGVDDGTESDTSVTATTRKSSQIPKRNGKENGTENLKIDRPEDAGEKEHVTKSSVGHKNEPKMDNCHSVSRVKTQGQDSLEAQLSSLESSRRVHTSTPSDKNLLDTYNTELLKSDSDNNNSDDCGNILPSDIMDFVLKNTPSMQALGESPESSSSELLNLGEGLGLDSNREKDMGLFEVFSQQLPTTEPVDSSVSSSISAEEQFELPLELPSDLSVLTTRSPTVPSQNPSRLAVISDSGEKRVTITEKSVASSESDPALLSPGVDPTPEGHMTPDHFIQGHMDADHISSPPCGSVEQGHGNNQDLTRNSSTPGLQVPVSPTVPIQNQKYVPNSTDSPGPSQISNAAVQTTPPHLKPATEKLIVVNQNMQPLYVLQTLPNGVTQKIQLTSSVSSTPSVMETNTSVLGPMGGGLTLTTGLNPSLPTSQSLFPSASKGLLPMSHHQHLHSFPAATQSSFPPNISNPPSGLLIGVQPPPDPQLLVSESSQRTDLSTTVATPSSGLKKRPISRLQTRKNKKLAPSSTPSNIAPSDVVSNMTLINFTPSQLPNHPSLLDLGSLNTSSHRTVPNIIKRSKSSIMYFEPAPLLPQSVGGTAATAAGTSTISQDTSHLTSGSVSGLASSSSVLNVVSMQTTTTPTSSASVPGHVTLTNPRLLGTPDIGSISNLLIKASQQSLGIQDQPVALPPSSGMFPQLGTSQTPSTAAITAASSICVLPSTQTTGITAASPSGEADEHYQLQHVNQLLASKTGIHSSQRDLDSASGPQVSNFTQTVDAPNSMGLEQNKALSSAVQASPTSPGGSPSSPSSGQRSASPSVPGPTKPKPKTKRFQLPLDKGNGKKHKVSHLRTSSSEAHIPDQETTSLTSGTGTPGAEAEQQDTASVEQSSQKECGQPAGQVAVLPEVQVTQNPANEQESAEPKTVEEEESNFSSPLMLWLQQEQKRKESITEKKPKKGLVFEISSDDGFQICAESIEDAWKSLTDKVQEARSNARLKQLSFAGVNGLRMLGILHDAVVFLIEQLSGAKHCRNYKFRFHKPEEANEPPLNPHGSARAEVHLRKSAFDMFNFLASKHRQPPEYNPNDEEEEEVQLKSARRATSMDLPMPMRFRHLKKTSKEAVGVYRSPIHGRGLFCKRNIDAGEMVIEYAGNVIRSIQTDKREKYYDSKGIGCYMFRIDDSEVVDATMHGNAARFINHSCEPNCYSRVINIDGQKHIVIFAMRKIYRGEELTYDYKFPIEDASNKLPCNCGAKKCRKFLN

Structure (SMILES) | remaining activity at 1 µM (PRMT9) | remaining activity at 10 µM (PRMT9) | remaining activity at 1 µM (DNMT1) | remaining activity at 10 µM (DNMT1) | remaining activity at 1 µM (SETD7) | remaining activity at 10 µM (SETD7) | remaining activity at 1 µM (MLL1) | remaining activity at 10 µM (MLL1) | remaining activity at 1 µM (SETDB1) | remaining activity at 10 µM (SETDB1) | remaining activity at 1 µM (METTL3-14) | remaining activity at 10 µM (METTL3-14) | remaining activity at 1 µM (DOT1L) | remaining activity at 10 µM (DOT1L) | remaining activity at 1 µM (SUV39H2) | remaining activity at 10 µM (SUV39H2)
Nc1ncnc2c1ncn2[C@@H]1O[C@H](CSCCCCNCc2cccc(-c3ccc(Cl)cc3)c2)[C@@H](O)[C@H]1O [SGC8158] | 19% | 4% | 98% | 91% | 100% | 100% | 106% | 99% | 103% | 99% | 97% | 84% | 58% | 13% | 103% | 102%
CC1(C)O[C@@H]2[C@H](O1)[C@@H](CSCCCCNCc1cccc(-c3ccc(Cl)cc3)c1)O[C@H]2n1cnc2c(N)ncnc21 [SGC8158N] | 106% | 95% | 94% | 99% | 96% | 89% | 101% | 98% | 99% | 91% | 87% | 73% | 97% | 95% | 103% | 78%

Reference: PMC7224190, “Pharmacological inhibition of PRMT7 links arginine monomethylation to the cellular stress response” (Nature Communications, 2020)
